Laboratory results from patent publication US20150167050A1, “Cancer Diagnosis by Measuring Polyisoprenylated Methylated Protein Methyl Esterase Activity” (Florida Agricultural and Mechanical University, priority 2013, published 2015).

Key:
[1] = test system: PMPMEase; settings: cited from earlier work; for concentrations that inhibit PMPMEase: concentration range given in words only
[2] = test system: PMPMEase; assay: Inhibition of PMPMEase by drugs, curcumin, fatty acids and prostaglandins; assay type: biochemical; settings: relative to arachidonic acid (AA)

SMILES: CCCCC[C@H](O)/C=C/[C@H]1[C@H](O)CC(=O)[C@@H]1C/C=C\CCCC(=O)O [PGE2]
- inhibition of PMPMEase at 1 mM ([1]; 1 mM): did not inhibit

SMILES: CCCCC[C@H](O)/C=C/[C@H]1C=CC(=O)[C@@H]1C/C=C\CCCC(=O)O [Prostaglandin (PG) A2]
- fold less potent than AA as PMPMEase inhibitor [2]: 63 fold

SMILES: CCCCC/C=C\C/C=C\C/C=C\C/C=C\CCCC(=O)O [arachidonic acid]
- concentrations that inhibit PMPMEase [1]: micromolar concentrations

SMILES: COc1cc(/C=C/C(=O)CC(=O)/C=C/c2ccc(O)c(OC)c2)ccc1O [curcumin]
- concentrations that inhibit PMPMEase [1]: micromolar concentrations

SMILES: O=P1(N(CCCl)CCCl)NCCCO1 (stereo not drawn) [cyclophosphamide]
- concentrations that inhibit PMPMEase [1]: millimolar concentrations

SMILES: CC/C(=C(\c1ccccc1)c1ccc(OCCN(C)C)cc1)c1ccccc1 [tamoxifen]
- concentrations that inhibit PMPMEase [1]: millimolar concentrations
